Laboratory results published in US8067231B2 (priority 2005, dated 2011).

System: Neuro-2A
Type: cell-based, mouse

SMILES: CC1=C(/C=C/C(C)=C/C=C/C(C)=C/C(=O)O)C(C)(C)CCC1 [all trans retinoic acid, All Trans-Retinoic acid]
- BoNT/A SNAP25197-cleavage product (uptake of BoNT/A) after differentiation reagent treatment: increase
